This is an account of results in publication PMC10184128 (Journal of Medicinal Chemistry, 2023).

Molecules are shown by their SMILES.

One assay addresses human Nurr1 (Homo sapiens, UniProt P43354). As to conditions: for activation of Gal4-Nurr1 (hybrid assay): all compounds tested at 10 μM, n = 3; for EC50(Nurr1): Gal4 hybrid reporter gene assay, mean ± S.E.M., n ≥ 3, inactive = at 10 μM.
The target of assay [1] is full-length human Nurr1 (NBRE) (Homo sapiens, UniProt P43354). Conditions: all compounds tested at 10 μM, n = 3.
For a further assay, the target named is T1, NOR1 (NR4A3) (Homo sapiens, UniProt Q92570).
T1 sequence (Q92570 394-623 limits assumed): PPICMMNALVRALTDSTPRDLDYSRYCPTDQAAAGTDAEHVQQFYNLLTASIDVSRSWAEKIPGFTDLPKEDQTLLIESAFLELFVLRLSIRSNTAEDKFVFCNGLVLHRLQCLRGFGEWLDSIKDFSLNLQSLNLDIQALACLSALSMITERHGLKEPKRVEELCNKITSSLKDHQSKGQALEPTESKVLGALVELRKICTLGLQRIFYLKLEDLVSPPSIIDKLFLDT
Nature of the assay: cell-based.

Chain of human Nurr1 (P43354 360-595 limits assumed): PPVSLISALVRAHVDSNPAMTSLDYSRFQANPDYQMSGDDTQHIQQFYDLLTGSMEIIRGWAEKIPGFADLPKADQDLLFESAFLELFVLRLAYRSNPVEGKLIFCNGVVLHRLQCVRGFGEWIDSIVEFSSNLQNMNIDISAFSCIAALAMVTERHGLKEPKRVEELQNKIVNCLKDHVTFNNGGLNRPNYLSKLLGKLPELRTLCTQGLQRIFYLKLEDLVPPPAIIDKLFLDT
Chain of full-length human Nurr1 (NBRE) (P43354 whole entry): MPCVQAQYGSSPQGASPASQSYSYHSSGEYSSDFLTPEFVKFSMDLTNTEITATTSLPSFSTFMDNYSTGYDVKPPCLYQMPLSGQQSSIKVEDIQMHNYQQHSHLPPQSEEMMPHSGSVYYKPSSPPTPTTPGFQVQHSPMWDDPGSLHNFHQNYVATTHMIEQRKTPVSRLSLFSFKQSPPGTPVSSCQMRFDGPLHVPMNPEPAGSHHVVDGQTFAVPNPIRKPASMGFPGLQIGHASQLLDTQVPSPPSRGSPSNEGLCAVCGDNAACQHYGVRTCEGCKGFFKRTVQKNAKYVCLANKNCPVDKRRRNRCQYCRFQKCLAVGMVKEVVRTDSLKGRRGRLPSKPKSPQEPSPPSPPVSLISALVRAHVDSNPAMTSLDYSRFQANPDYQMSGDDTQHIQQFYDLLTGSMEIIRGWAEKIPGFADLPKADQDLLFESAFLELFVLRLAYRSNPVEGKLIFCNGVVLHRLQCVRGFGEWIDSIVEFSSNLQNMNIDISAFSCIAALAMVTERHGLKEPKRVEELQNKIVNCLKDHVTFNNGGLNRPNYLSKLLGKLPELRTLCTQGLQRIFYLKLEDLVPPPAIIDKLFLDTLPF

On to `Cc1ccccc1-c1ccc(-c2cc(C(=O)O)c3c(c2)nnn3C)cc1` [AG-636], for which the “activation of Gal4-Nurr1 (hybrid assay)” value on human Nurr1 is reported as “No other tested DHODH inhibitor caused activation”. Moreover, in assay [1], the “activation of full-length Nurr1 (NBRE)” value was “No other tested DHODH inhibitor caused activation”.
Consider `O=C(Nc1c(F)c(F)c(-c2ccccc2)c(F)c1F)c1c(=O)[nH]n2ccccc12` [MEDS433], for which the “activation of Gal4-Nurr1 (hybrid assay)” value at human Nurr1 is listed as “No other tested DHODH inhibitor caused activation”. The “activation of full-length Nurr1 (NBRE)” value in assay [1] is on record as “No other tested DHODH inhibitor caused activation”.
For `[2H]C([2H])([2H])Oc1cccc(C23CCC(NC(=O)C4=C(C(=O)O)CCC4)(CC2)CC3)c1` [compound 8], the “EC50(Nurr1)” value at human Nurr1 was “inactive (10 μM)”.
Regarding `[2H]C([2H])([2H])Oc1cccc(-c2ccc(N(C)C(=O)C3=C(C(=O)O)CCC3)c(F)c2)c1` [compound 9], the “EC50(Nurr1)” value on human Nurr1 was “inactive (10 μM)”.
By EC50 is commonly meant the concentration that produces a half-maximal response. Low readings indicate higher potency in that assay, high ones lower potency in that assay. Compound `C#CCOc1cccc(-c2ccc(NC(=O)C3=C(C(=O)O)CCC3)c(F)c2)c1` [compound 29, 2-[(3-Fluoro-3′-prop-2-yn-1-yloxy[1,1′-biphenyl]-4-yl)carbamoyl]cyclopent-1-ene-1-carboxylic acid] came in with an EC50 on NOR1 (NR4A3) of 1300 ± 300 nM.
For the compound `COc1cccc(-c2cc(F)c(Nc3ncccc3C(=O)O)c(F)c2)c1` [farudodstat], the “activation of Gal4-Nurr1 (hybrid assay)” value at human Nurr1 was “No other tested DHODH inhibitor caused activation”. Moreover, the “activation of full-length Nurr1 (NBRE)” value in assay [1] is on record as “No other tested DHODH inhibitor caused activation”.
